From US12281149B2, “Modulators of G-protein coupled receptors” (priority 2021, dated 2025)
pEC50: −log10 of the molar value. *1 amine or outer side, *2 acyl side, *3 side chain or, on linkers, in order; H or OH if unused. Where a SMILES comes first, the peptide text is derived from it. Side-chain parts run from the residue outwards. [ ]: non-standard residue; d: D form. The star is where a group is joined. Isobutyryl(2-(3-CN-5-F-Ph)) = CC(C)(C(=O)*)c1cc(F)cc(C#N)c1; C20 diacid = O=C(O)CCCCCCCCCCCCCCCCCCC(=O)*; αMePhe(2-F) = C[C@](N)(Cc1ccccc1F)C(=O)O; γGlu = O=C(O)[C@H](CCC(=O)[*:2])N[*:1]; X2 = CC(C)(C(=O)*)c1cccc(F)c1; X23 = CC(C)(C(=O)*)c1ccncc1; X1 = CC(C)(C(=O)*)c1cccnc1; X6 = CC(C)(C(=O)*)c1ccccc1; AEEA = NCCOCCOCC(=O)O; Aib = CC(C)(N)C(=O)O; βAla = NCCC(=O)O

How the values were obtained:
Format in all cases: cell-based
GLP-1 receptor [1] = target: T1, GLP-1 receptor (Homo sapiens, UniProt P43220); assay: HitHunter cAMP assay, GLP-1 receptor; conditions: for pEC50: CHO cells stably expressing human GLP-1 receptor, cAMP accumulation, 30 min, read-out: EC50 GLP-1R; for Emax: CHO cells, cAMP, normalized to maximum signal from GLP-1 (high) and DMSO (low), read-out: Emax GLP-1R
Protocol: CAMP accumulation was measured in Chinese hamster ovary (CHO) cells stably expressing the human GLP-1 receptor or GIP receptor using the HitHunter CAMP Assay for Small Molecules Kit (Eurofins). Briefly, cells were grown in Ham's F12 Nutrient Mix with 10% FBS and lifted with Cell dissociation buffer, Enzyme free, PBS based (ThermoFisher). Cells were pelleted and resuspended in Hank's buffered saline solution with 10 mM Hepes and 625 μM 3-isobutyl-1-methylxanthine. The antibody reagent was then added to cells at a 1:2 ratio and 5 μL of mixture was seeded in 384-well small volume white assay plates, at 10,000 cells/well. Cells were then treated with 50 nl compound in DMSO using an ECHO 550 acoustic dispenser (Labcyte) in a 20-point dose response format in triplicate for 30 min. Cells were the lysed and detection reagents added according to the manufacturer's protocol. After overnight incubation, luminescence was measured using a Perkin Elmer Envision plate reader. Raw data was normalized to the maximum signal from GLP-1 or GIP (high) and DMSO (low). Dose response curves were analyzed using GraphPad Prism 9.0.

GIP receptor [2] = target: T2, GIP receptor (Homo sapiens, UniProt P48546); assay: HitHunter cAMP assay, GIP receptor; conditions: for pEC50: CHO cells stably expressing GIP receptor, cAMP accumulation, 30 min, read-out: EC50 GIP-1R; for Emax: CHO cells, cAMP, normalized to maximum signal from GIP (high) and DMSO (low), read-out: Emax GIP-1R
T2 sequence (P48546 22-466): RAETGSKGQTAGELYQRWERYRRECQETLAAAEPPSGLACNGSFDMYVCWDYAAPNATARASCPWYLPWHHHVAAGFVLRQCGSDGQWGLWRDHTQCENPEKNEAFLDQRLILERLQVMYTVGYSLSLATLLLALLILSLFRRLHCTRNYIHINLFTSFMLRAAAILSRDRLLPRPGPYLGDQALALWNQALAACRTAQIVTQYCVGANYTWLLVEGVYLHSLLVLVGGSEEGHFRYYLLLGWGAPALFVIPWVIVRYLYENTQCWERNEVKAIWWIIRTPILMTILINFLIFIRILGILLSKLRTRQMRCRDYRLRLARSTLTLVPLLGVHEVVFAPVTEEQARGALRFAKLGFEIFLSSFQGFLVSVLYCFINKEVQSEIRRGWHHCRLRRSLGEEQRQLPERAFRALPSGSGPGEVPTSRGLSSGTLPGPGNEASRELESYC

GIP receptor [3] = target: T2, GIP receptor; assay: PathHunter β-arrestin assay, GIP receptor; parameters: host or cells: PathHunter CHO-K1 GIPR β-Arrestin Cell Line; conditions: β-arrestin-2 recruitment, PathHunter CHO-K1 GIPR β-Arrestin Cell Line, 90 min at 37° C.; normalized to GIP; read-out: GIPR β Arrestin EC50
GLP-1 receptor [4] = target: T1, GLP-1 receptor; assay: PathHunter β-arrestin assay, GLP-1 receptor; parameters: host or cells: PathHunter CHO-K1 GLP1R β-Arrestin Cell Line; conditions: β-arrestin-2 recruitment, PathHunter CHO-K1 GLP1R β-Arrestin Cell Line, 90 min at 37° C.; normalized to GLP-1; read-out: GLP-1R β Arrestin EC50

T1 sequence (P43220 24-463): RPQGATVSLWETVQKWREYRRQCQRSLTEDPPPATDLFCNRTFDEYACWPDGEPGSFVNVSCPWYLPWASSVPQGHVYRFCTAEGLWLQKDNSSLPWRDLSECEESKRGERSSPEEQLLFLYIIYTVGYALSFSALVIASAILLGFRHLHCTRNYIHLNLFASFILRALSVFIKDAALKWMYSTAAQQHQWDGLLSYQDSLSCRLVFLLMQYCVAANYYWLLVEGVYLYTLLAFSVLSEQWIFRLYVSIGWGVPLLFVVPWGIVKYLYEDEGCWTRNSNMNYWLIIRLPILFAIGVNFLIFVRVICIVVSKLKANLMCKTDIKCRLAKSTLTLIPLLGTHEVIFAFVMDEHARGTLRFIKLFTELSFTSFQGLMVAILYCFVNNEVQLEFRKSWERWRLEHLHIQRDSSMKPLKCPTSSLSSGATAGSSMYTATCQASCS

Row | SMILES | pEC50 (GLP-1 receptor [1]) | Emax (GLP-1 receptor [1]) | pEC50 (GIP receptor [2]) | Emax (GIP receptor [2]) | pEC50 (GIP receptor [3]) | pEC50 (GLP-1 receptor [4])
1 | CC[C@H](C)[C@H](NC(=O)[C@H](CC(C)C)NC(=O)[C@H](Cc1c[nH]c2ccccc12)NC(=O)[C@H](CCC(N)=O)NC(=O)[C@@H](NC(=O)[C@H](Cc1ccccc1)NC(=O)[C@H](C)NC(=O)[C@H](CCCCNC(=O)COCCOCCNC(=O)COCCOCCNC(=O)CC[C@H](NC(=O)CCCCCCCCCCCCCCCCCCC(=O)O)C(=O)O)NC(=O)[C@H](CCC(N)=O)NC(=O)[C@H](C)NC(=O)[C@@H](NC(=O)[C@H](CCCCN)NC(=O)[C@H](CC(=O)O)NC(=O)[C@H](CC(C)C)NC(=O)C(C)(C)NC(=O)[C@@H](NC(=O)[C@H](CO)NC(=O)[C@H](Cc1ccc(O)cc1)NC(=O)[C@H](CC(=O)O)NC(=O)[C@H](CO)NC(=O)[C@@H](NC(=O)[C@H](Cc1ccccc1)NC(=O)[C@@H](NC(=O)CNC(=O)[C@H](CCC(=O)O)NC(=O)CCNC(=O)C(C)(C)c1ccncc1)[C@@H](C)O)[C@@H](C)O)[C@@H](C)CC)[C@@H](C)CC)C(C)C)C(=O)N[C@@H](C)C(=O)NCC(=O)NCC(=O)N1CCC[C@H]1C(=O)N[C@@H](CO)C(=O)N[C@@H](CO)C(=O)NCC(=O)N[C@@H](C)C(=O)N1CCC[C@H]1C(=O)N1CCC[C@H]1C(=O)N1CCC[C@H]1C(=O)N[C@@H](CO)C(N)=O [Compound 238] ({X23-βAla}-EGTFTSDYSI[Aib]LDKIAQK([AEEA-AEEA-γGlu-C20 diacid])AFVQWLIAGGPSSGAPPPS-NH2) | 9.00 to 10.00 | 91% | 7.00 to 8.00 | 100% | < 6.00 | < 6.00
2 | CC[C@H](C)[C@H](NC(=O)[C@H](CC(C)C)NC(=O)[C@H](Cc1c[nH]c2ccccc12)NC(=O)[C@H](CCC(N)=O)NC(=O)[C@@H](NC(=O)[C@H](Cc1ccccc1)NC(=O)[C@H](C)NC(=O)[C@H](CCCCNC(=O)COCCOCCNC(=O)COCCOCCNC(=O)CC[C@H](NC(=O)CCCCCCCCCCCCCCCCCCC(=O)O)C(=O)O)NC(=O)[C@H](CCC(N)=O)NC(=O)[C@H](C)NC(=O)[C@@H](NC(=O)[C@H](CCCCN)NC(=O)[C@H](CC(=O)O)NC(=O)[C@H](CC(C)C)NC(=O)C(C)(C)NC(=O)[C@@H](NC(=O)[C@H](CO)NC(=O)[C@H](Cc1ccc(O)cc1)NC(=O)[C@H](CC(=O)O)NC(=O)[C@H](CO)NC(=O)[C@@H](NC(=O)[C@H](Cc1ccccc1)NC(=O)[C@@H](NC(=O)CNC(=O)[C@H](CCC(=O)O)NC(=O)CCNC(=O)C(C)(C)c1cccnc1)[C@@H](C)O)[C@@H](C)O)[C@@H](C)CC)[C@@H](C)CC)C(C)C)C(=O)N[C@@H](C)C(=O)NCC(=O)NCC(=O)N1CCC[C@H]1C(=O)N[C@@H](CO)C(=O)N[C@@H](CO)C(=O)NCC(=O)N[C@@H](C)C(=O)N1CCC[C@H]1C(=O)N1CCC[C@H]1C(=O)N1CCC[C@H]1C(=O)N[C@@H](CO)C(N)=O [Compound 239] ({X1-βAla}-EGTFTSDYSI[Aib]LDKIAQK([AEEA-AEEA-γGlu-C20 diacid])AFVQWLIAGGPSSGAPPPS-NH2) | > 10.00 | 91% | 8.00 to 9.00 | 99% | < 6.00 | > 6.00
3 | CC[C@H](C)[C@H](NC(=O)[C@H](CC(C)C)NC(=O)[C@H](Cc1c[nH]c2ccccc12)NC(=O)[C@H](CCC(N)=O)NC(=O)[C@@H](NC(=O)[C@H](Cc1ccccc1)NC(=O)[C@H](C)NC(=O)[C@H](CCCCNC(=O)COCCOCCNC(=O)COCCOCCNC(=O)CC[C@H](NC(=O)CCCCCCCCCCCCCCCCCCC(=O)O)C(=O)O)NC(=O)[C@H](CCC(N)=O)NC(=O)[C@H](C)NC(=O)[C@@H](NC(=O)[C@H](CCCCN)NC(=O)[C@H](CC(=O)O)NC(=O)[C@H](CC(C)C)NC(=O)C(C)(C)NC(=O)[C@@H](NC(=O)[C@H](CO)NC(=O)[C@H](Cc1ccc(O)cc1)NC(=O)[C@H](CC(=O)O)NC(=O)[C@H](CO)NC(=O)[C@@H](NC(=O)[C@H](Cc1ccccc1)NC(=O)[C@@H](NC(=O)CNC(=O)[C@H](CCC(=O)O)NC(=O)CCNC(=O)C(C)(C)c1cccc(F)c1)[C@@H](C)O)[C@@H](C)O)[C@@H](C)CC)[C@@H](C)CC)C(C)C)C(=O)N[C@@H](C)C(=O)NCC(=O)NCC(=O)N1CCC[C@H]1C(=O)N[C@@H](CO)C(=O)N[C@@H](CO)C(=O)NCC(=O)N[C@@H](C)C(=O)N1CCC[C@H]1C(=O)N1CCC[C@H]1C(=O)N1CCC[C@H]1C(=O)N[C@@H](CO)C(N)=O [Compound 240] ({X2-βAla}-EGTFTSDYSI[Aib]LDKIAQK([AEEA-AEEA-γGlu-C20 diacid])AFVQWLIAGGPSSGAPPPS-NH2) | > 10.00 | 93% | 8.00 to 9.00 | 95% | > 6.00 | > 6.00
4 | CC[C@H](C)[C@H](NC(=O)[C@H](CC(C)C)NC(=O)[C@H](Cc1c[nH]c2ccccc12)NC(=O)[C@H](CCC(N)=O)NC(=O)[C@@H](NC(=O)[C@H](Cc1ccccc1)NC(=O)[C@H](C)NC(=O)[C@H](CCCCNC(=O)COCCOCCNC(=O)COCCOCCNC(=O)CC[C@H](NC(=O)CCCCCCCCCCCCCCCCCCC(=O)O)C(=O)O)NC(=O)[C@H](CCC(N)=O)NC(=O)[C@H](C)NC(=O)[C@@H](NC(=O)[C@H](CCCCN)NC(=O)[C@H](CC(=O)O)NC(=O)[C@H](CC(C)C)NC(=O)C(C)(C)NC(=O)[C@@H](NC(=O)[C@H](CO)NC(=O)[C@H](Cc1ccc(O)cc1)NC(=O)[C@H](CC(=O)O)NC(=O)[C@H](CO)NC(=O)[C@@H](NC(=O)[C@H](Cc1ccccc1)NC(=O)[C@@H](NC(=O)CNC(=O)[C@H](CCC(=O)O)NC(=O)CCNC(=O)C(C)(C)c1ccccc1)[C@@H](C)O)[C@@H](C)O)[C@@H](C)CC)[C@@H](C)CC)C(C)C)C(=O)N[C@@H](C)C(=O)NCC(=O)NCC(=O)N1CCC[C@H]1C(=O)N[C@@H](CO)C(=O)N[C@@H](CO)C(=O)NCC(=O)N[C@@H](C)C(=O)N1CCC[C@H]1C(=O)N1CCC[C@H]1C(=O)N1CCC[C@H]1C(=O)N[C@@H](CO)C(N)=O [Compound 241] ({X6-βAla}-EGTFTSDYSI[Aib]LDKIAQK([AEEA-AEEA-γGlu-C20 diacid])AFVQWLIAGGPSSGAPPPS-NH2) | 9.00 to 10.00 | 95% | 8.00 to 9.00 | 100% | > 6.00 | > 6.00
5 | CC[C@H](C)[C@H](NC(=O)[C@H](CC(C)C)NC(=O)[C@H](Cc1c[nH]c2ccccc12)NC(=O)[C@H](CCC(N)=O)NC(=O)[C@@H](NC(=O)[C@H](Cc1ccccc1)NC(=O)[C@H](C)NC(=O)[C@H](CCCCNC(=O)COCCOCCNC(=O)COCCOCCNC(=O)CC[C@H](NC(=O)CCCCCCCCCCCCCCCCCCC(=O)O)C(=O)O)NC(=O)[C@H](CCC(N)=O)NC(=O)[C@H](C)NC(=O)[C@@H](NC(=O)[C@H](CCCCN)NC(=O)[C@H](CC(=O)O)NC(=O)[C@H](CC(C)C)NC(=O)C(C)(C)NC(=O)[C@@H](NC(=O)[C@H](CO)NC(=O)[C@H](Cc1ccc(O)cc1)NC(=O)[C@H](CC(=O)O)NC(=O)[C@H](CO)NC(=O)[C@@H](NC(=O)[C@](C)(Cc1ccccc1F)NC(=O)[C@@H](NC(=O)CNC(=O)[C@H](CCC(=O)O)NC(=O)CCNC(=O)C(C)(C)c1cc(F)cc(C#N)c1)[C@@H](C)O)[C@@H](C)O)[C@@H](C)CC)[C@@H](C)CC)C(C)C)C(=O)N[C@@H](C)C(=O)NCC(=O)NCC(=O)N1CCC[C@H]1C(=O)N[C@@H](CO)C(=O)N[C@@H](CO)C(=O)NCC(=O)N[C@@H](C)C(=O)N1CCC[C@H]1C(=O)N1CCC[C@H]1C(=O)N1CCC[C@H]1C(=O)N[C@@H](CO)C(N)=O [Compound 245] ({Isobutyryl(2-(3-CN-5-F-Ph))-βAla}-EGT[αMePhe(2-F)]TSDYSI[Aib]LDKIAQK([AEEA-AEEA-γGlu-C20 diacid])AFVQWLIAGGPSSGAPPPS-NH2) | 9.00 to 10.00 | 122% | 9.00 to 10.00 | 90% | > 6.00 | < 6.00
